# According to US9453040B2, “Glycodendrimers of polypropyletherimine” (priority 2010, dated 2016):
# Test system: pro-inflammatory cytokines such as IL-6, IL-8, IL-1 beta, TNF-alpha and MIP-1 beta
# Assay: Effect of unconjugated components on pro-inflammatory cytokines
# Assay type: cell-based
# Settings: even at high doses
compound,measurement,value
N[C@H]1C(O)O[C@H](CO)[C@@H](O)[C@@H]1O (stereo partly shown) [glucosamine],"effect on pro-inflammatory cytokines such as IL-6, IL-8, IL-1 beta, TNF-alpha and MIP-1 beta",no effect
